Assay [1] concerns B (CD19 positive) and NK cells (CD58 positive). Briefly: Interaction propensity of B (CD19 positive) and NK cells in PBMC monolayers. In kind it is cell-based, human. As to conditions: 48 h, over PBS control (0). The text has this:
FIG. 11: Measured interaction propensity expressed as Log 2 interaction score of CD19 cells to CD56 cells with increasing concentrations of the clinically approved biologic drug Rituxidmab, with media alone as a control (0). Rituximab has a known mechanism of action bringing together NK-cells and cancerous B-cells, and through this interaction inducing cancer, reducing the cancerous burden.
PBMC monolayers were provided as described in WO 2016/046346, treated with rituximab or PBS control (0) for 48 h, fixed, stained with fluorescently labeled CD56 and CD19 antibodies and imaged using automated confocal microscopy. Subsequently, the interaction propensity of B (CD19 positive) and NK cells ([…]) in the provided non-adherent cell monolayers was determined using the present invention.

The test system of assay [2] is B (CD19 positive) and T cells (CD3 positive). Briefly: Interaction propensity of B (CD19 positive) and T cells (CD3 positive) in PBMC monolayers. It counts as cell-based, human. Particulars: PBMC monolayers (healthy blood), 48 h, over PBS control (0). The text has this:
FIG. 9: Measured interaction propensity expressed as Log 2 interaction score of CD3 cells to […] with increasing concentrations of the clinically approved biologic drug Blinatumomab, with media alone as a control (0). Blinatumomab has a known mechanism of action bringing together cytotoxic or other T-cells and cancerous B-cells, through this interaction, Inducing cancer cell killing and thus reducing the cancerous burden.
PBMC monolayers were provided as described in WO 2016/046346, treated with blinatumomab or PBS control (0) for 48 h, fixed, stained with fluorescently labeled CD3 and CD19 antibodies and imaged using automated confocal microscopy. Subsequently, the interaction propensity of B (CD19 positive) and T cells (CD3 positive) in the provided non-adherent cell monolayers was determined using the present invention.

For another assay, the system named is B and T cells. Briefly: Interaction propensity of B and T cells in combined bone marrow and PBMCs of B-ALL patients. It counts as cell-based, human. Particulars: B-ALL bone marrow plus PBMCs, vs PBS control. The text has this: Bone marrow of a patients with B-cell acute lymphoblastic leukemia (B-ALL) and PBMCs of the same patient are combined, treated with blinatumomab or PBS control and the interaction propensity of B and T cells in non-adherent cell monolayers obtained from treated and untreated combined sample according to WO 2016/046346 determined using the present invention.

In assay [3] the test system is CD10+ positive target cells and CD3+ T-cells. Briefly: Interaction of CD10 positive tumour cells with T-cells in pleural effusion/PBMC monolayers of a B-cell lymphoma patient. It counts as cell-based, human. The procedure:
FIG. 12: interactions between CD10+ positive target cells, which according to pathology review comprised the tumour cells, and CD3+ T-cells were measured in a sample of a B-cell lymphoma patient in response to blinatumomab treatment for 24 h using the methods of the present invention and quantified as an interaction score. […] The different graphs show different amounts of cells isolated from pleural effusion (PE) of the patient mixed with different amounts of matched PBMCs from the same patient.
Pleural effusion from a patient with a B-cell lymphoma was collected by gradient density centrifugation. This pleural effusion consisted of a mixture of cell types found in bone marrow and PBMCs having migrated to the pleural cavity with concomitant fluid build-up and contained cancer as well as healthy cells. A matched sample of blood was also purified over Lymphoprep gradient. Cells obtained from the pleural effusion were titrated against cells from the matched PBMC samples and monolayers prepared according to WO2016/046346. Monolayers were treated with different concentrations of blinatumomab and the interaction of tumour cell populations previously determined to be CD10 positive by a pathologist with effector T-cells determined using the methods described in the present invention.

The test system of another assay is B-cell lymphoma. Briefly: Clinical response of the B-cell lymphoma patient to treatment. In kind it is in vivo, human. As to conditions: one B-cell lymphoma patient given the drug.
The next assay concerns CD11C and CD3 cells. Kind of assay: Interaction propensity of CD11C and CD3 cells in PBMC monolayers of a healthy donor. It counts as cell-based, human. Particulars: PBMCs of a healthy donor, various concentrations, vs DMSO control. The procedure: FIG. 10: Measured interaction propensity expressed as Log 2 interaction score of CD11c and CD3 cells after treatment with the small molecule Crizotinib.
PBMCs of a healthy donor are treated with Crizotinib or DMSO control at various concentrations and the interaction propensity of CD11C and CD3 cells in non adherent cell monolayers obtained from treated and untreated combined sample according to WO 2016/046346 determined using the present invention.

The next assay relates to B and NK cells. Briefly: Interaction propensity of B and NK cells in combined bone marrow and PBMCs of B-ALL patients. In kind it is cell-based, human. As to conditions: B-ALL bone marrow plus PBMCs, vs PBS control. The text has this: Bone marrow of a patients with B-cell acute lymphoblastic leukemia (B-ALL) and PBMCs of the same patient are combined, treated with Rituximab or PBS control and the interaction propensity of B and NK cells in non-adherent cell monolayers obtained from treated and untreated combined sample according to WO 2016/046346 determined using the present invention.

Where [4] appears, read: patients not responding clinically.
[5] abbreviates: patients responding to the drug.

Entries after “also recorded” stand apart in the source; their conditions may differ.

Experimental findings from patent US20200064348A1, “METHODS FOR DETERMINING INTERACTION BETWEEN BIOLOGICAL CELLS” (CeMM - Forschungszentrum für Molekulare Medizin GmbH, priority 2017, published 2020) are described below.

With “blinatumomab: bispecific antibody in BITE format that cross links B and T cells inducing T cells to kill B cells”, in assay [1], the “interaction propensity between B and NK cells” value is recorded as “increase”. Also, the “interaction propensity between B and T cells” value was “increases” in assay [2]; “increase” in assay [2] (listed as blinatomumab); “do not exhibit this increase” in the assay on B and T cells (setting [4]); “increase” in the assay on B and T cells (setting [5]). For the same molecule, the “fraction of tumour B-cells” value in assay [3] (B-cell lymphoma patient sample, ex vivo treatment) was “did not change significantly”. In assay [3] (B-cell lymphoma patient, pleural effusion cells mixed with matched PBMCs, different concentrations, 24 h), the “interaction of CD10 positive tumour cells with effector T-cells (interaction score)” value is “this was not the case for this patient; also recorded: no such interaction change was observed”. Besides, in the assay on B-cell lymphoma, the “clinical response of the patient” value was “not to respond; also recorded: transient and weak response”.
Take `C[C@@H](Oc1cc(-c2cnn(C3CCNCC3)c2)cnc1N)c1c(Cl)ccc(F)c1Cl` [Crizotinib]: the “interaction of DCs and T-cells as indicated by the interaction score” value in the assay with CD11C and CD3 cells is reported as “increase”.
Consider “Rituximab: anti-CD20 antibody that links B and NK cells, inducing NK cells to kill B cells”, for which the “interaction propensity between B and NK cells” value with B and NK cells (setting [4]) was “do not exhibit this increase”; in the assay on B and NK cells (setting [5]) it was “increase”.
